According to the supplement of paper PMC4862054:

What was measured:
Experiment in all cases: normalised response (% of control), CellTox Green; higher = less cell death (100 = DMSO, 0 = benzethonium chloride kill control)
Details in all cases: incubation time: 72 h
[1] = system: MFM-223
Summary of the method: (§1)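 Breast cancer cell lines (20 µl suspension) were seeded into 384-well plates holding compound at 5 concentrations in 10-fold steps over a compound-specific 10,000-fold range, then incubated 72 h. CellTox Green fluorescence (485/520 nm) was read first, then CellTiter-Glo luminescence after 10 min at room temperature. Each plate was normalised to 0.1 % DMSO (100) and a positive kill control (0). Each value is the normalised signal at a single concentration of the series.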

[2] = system: MDA-MB-436
Summary of the method: as §1

[3] = system: CAL-85-1
Summary of the method: as §1

[4] = system: BT-474
Summary of the method: as §1

[5] = system: DU-4475
Summary of the method: as §1

[6] = system: MCF-10A
Summary of the method: as §1

[7] = system: MDA-MB-231
Summary of the method: as §1

[8] = system: HCC1599
Summary of the method: as §1

[9] = system: Hs578T
Summary of the method: as §1

[10] = system: HCC1937
Summary of the method: as §1

[11] = system: BT-549
Summary of the method: as §1

[12] = system: CAL-51
Summary of the method: as §1

[13] = system: HDQ-P1
Summary of the method: as §1

[14] = system: MDA-MB-453
Summary of the method: as §1

[15] = system: CAL-148
Summary of the method: as §1

[16] = system: HCC1143
Summary of the method: as §1

[17] = system: CAL-120
Summary of the method: as §1

[18] = system: MDA-MB-468
Summary of the method: as §1

SMILES	normalised response [1] [%]	normalised response [2] [%]	normalised response [3] [%]	normalised response [4] [%]	normalised response [5] [%]	normalised response [6] [%]	normalised response [7] [%]	normalised response [8] [%]	normalised response [9] [%]	normalised response [10] [%]	normalised response [11] [%]	normalised response [12] [%]	normalised response [13] [%]	normalised response [14] [%]	normalised response [15] [%]	normalised response [16] [%]	normalised response [17] [%]	normalised response [18] [%]
CC[C@]1(O)C[C@@H]2CN(CCc3c([nH]c4ccccc34)[C@@](C(=O)OC)(c3cc4c(cc3OC)N(C)[C@H]3[C@@](O)(C(=O)OC)[C@H](OC(C)=O)[C@]5(CC)C=CCN6CC[C@]43[C@@H]65)C2)C1 [Vinblastine] (1000 nM)	51.2	83.1	85.4	75.3	95.5	50.5	19.5	75.5	-39.7	92.1	61.4	20.7	101	96.5	89.4	34.2	89.8	70.2
Cc1ccc(F)c(NC(=O)Nc2ccc(-c3cccc4[nH]nc(N)c34)cc2)c1 [Linifanib] (1000 nM)	101	107	65.7	101	106	90	110	104	105	104	122	99.5	–	102	95.7	87.2	97.9	86.9
OC[C@H]1O[C@@H](n2cnc3c2N=CNC[C@H]3O)C[C@@H]1O [Pentostatin] (1000 nM)	96	102	106	98.9	103	108	116	95.5	97.8	104	111	103	103	107	95.5	101	103	100
Cc1c2oc3c(C)ccc(C(=O)N[C@@H]4C(=O)N[C@H](C(C)C)C(=O)N5CCC[C@H]5C(=O)N(C)CC(=O)N(C)[C@@H](C(C)C)C(=O)O[C@@H]4C)c3nc-2c(C(=O)N[C@@H]2C(=O)N[C@H](C(C)C)C(=O)N3CCC[C@H]3C(=O)N(C)CC(=O)N(C)[C@@H](C(C)C)C(=O)O[C@@H]2C)c(N)c1=O [Dactinomycin] (100 nM)	78.6	89.8	31.6	76.7	81.8	-3.54	17.9	75.9	26.1	109	33.4	29.5	61.8	98	23.9	91	85.4	56.9
Clc1ccc(C(c2ccccc2Cl)C(Cl)Cl)cc1 (stereo not given) [Mitotane] (1000 nM)	93.7	96.3	108	100	98.3	96.4	95.2	93.5	–	99.9	115	103	56.1	100	104	87	98.1	140
Clc1ccc(C(c2ccccc2Cl)C(Cl)Cl)cc1 (stereo not given) [Mitotane] (10000 nM)	96.9	99.5	107	98	97.7	100	–	99.5	105	–	93.4	98.5	106	104	98.1	68.9	95.6	80.3
CS(=O)(=O)c1ccc(C(=O)Nc2ccc(Cl)c(-c3ccccn3)c2)c(Cl)c1 [Vismodegib] (1000 nM)	99.1	98	94.4	100	99	88.2	90.8	85.9	100	106	99.3	86.1	88.1	99.7	104	–	95	149
S=c1[nH]cnc2nc[nH]c12 [Mercaptopurine] (10000 nM)	79.1	93.6	118	101	97.8	83.9	95.7	102	121	89.1	107	101	102	91.5	96.1	108	101	185
Cc1ccc(F)c(NC(=O)Nc2ccc(-c3cccc4[nH]nc(N)c34)cc2)c1 [Linifanib] (100 nM)	103	66.4	96.3	101	107	107	116	106	66.5	117	110	101	112	108	108	122	101	66.5
CO[C@H]1C[C@@H]2CC[C@@H](C)[C@@](O)(O2)C(=O)C(=O)N2CCCC[C@H]2C(=O)O[C@H]([C@H](C)C[C@@H]2CC[C@@H](OC(=O)C(C)(CO)CO)[C@H](OC)C2)CC(=O)[C@H](C)/C=C(\C)[C@@H](O)[C@@H](OC)C(=O)[C@H](C)C[C@H](C)/C=C/C=C/C=C/1C [Temsirolimus] (100 nM)	90.9	97.1	80	91.2	98.8	91.2	123	106	-18.9	110	130	103	109	107	87.2	130	102	149
